Among the data in BindingDB's records for doi:10.1016/0014-2999(88)90492-x (Novo Industri, 1988) are Ki values, retold here.

Structures can show the parent of a compound that is named as a salt.

One test concerns the target D(1A) dopamine receptor (Mus musculus, UniProt Q61616).
The next test concerns the target D(2) dopamine receptor (Mus musculus, UniProt P61168).

Chain of D(2) dopamine receptor (P61168 whole entry): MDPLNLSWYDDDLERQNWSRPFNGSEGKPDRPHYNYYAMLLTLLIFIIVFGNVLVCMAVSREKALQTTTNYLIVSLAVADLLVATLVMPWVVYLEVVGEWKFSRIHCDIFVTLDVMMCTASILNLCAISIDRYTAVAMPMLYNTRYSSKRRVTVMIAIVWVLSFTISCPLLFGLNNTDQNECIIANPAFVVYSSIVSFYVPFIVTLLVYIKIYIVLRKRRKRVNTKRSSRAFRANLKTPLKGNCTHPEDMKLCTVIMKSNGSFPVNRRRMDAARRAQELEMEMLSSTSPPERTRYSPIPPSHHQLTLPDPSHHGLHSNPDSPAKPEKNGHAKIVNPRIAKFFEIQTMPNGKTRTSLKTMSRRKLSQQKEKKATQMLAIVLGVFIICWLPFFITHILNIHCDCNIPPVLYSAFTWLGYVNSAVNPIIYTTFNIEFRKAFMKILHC
Chain of D(1A) dopamine receptor (Q61616 whole entry): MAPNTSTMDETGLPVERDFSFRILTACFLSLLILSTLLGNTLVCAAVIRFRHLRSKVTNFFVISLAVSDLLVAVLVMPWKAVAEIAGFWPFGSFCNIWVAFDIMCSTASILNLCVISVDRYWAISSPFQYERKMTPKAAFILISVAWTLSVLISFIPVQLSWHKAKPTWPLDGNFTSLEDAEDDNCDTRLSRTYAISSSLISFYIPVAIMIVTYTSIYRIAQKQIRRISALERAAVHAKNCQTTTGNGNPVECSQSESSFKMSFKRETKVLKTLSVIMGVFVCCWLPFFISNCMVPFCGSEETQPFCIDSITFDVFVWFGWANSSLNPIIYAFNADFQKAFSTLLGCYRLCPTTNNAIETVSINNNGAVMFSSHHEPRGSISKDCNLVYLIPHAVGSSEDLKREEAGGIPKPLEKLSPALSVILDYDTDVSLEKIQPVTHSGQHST

Broadly, the Ki is a dissociation constant, usually derived from enzyme kinetics or from competition with a known ligand. A low value points to tighter binding. Consider `O=C(O)c1ccccc1C(=O)Nc1cccc2ccccc12` [NPA,(+)], for which the Ki on D(1A) dopamine receptor was 480 nM; at D(2) dopamine receptor, 4.1 nM.

For the molecule `CCN1CCC[C@H]1CNC(=O)c1c(O)c(Cl)cc(Cl)c1OC` [3,5-Dichloro-N-(1-ethyl-pyrrolidin-2-ylmethyl)-2-hydroxy-6-methoxy-benzamide (raclopride)], the inhibition constant Ki on D(1A) dopamine receptor was more than 10000 nM; at D(2) dopamine receptor it was 4.8 nM.

`CCN1CCCC1CNC(=O)c1cc(S(N)(=O)=O)ccc1OC` (centres undefined) [N-[(1-ethylpyrrolidin-2-yl)methyl]-2-methoxy-5-sulfamoylbenzamide]: at D(2) dopamine receptor, affinity was put at a Ki of 70 nM.

Regarding `CN1CCN(C2=Nc3cc(F)ccc3Cc3ccccc32)CC1`, the inhibition constant Ki on D(1A) dopamine receptor was found to be 85 nM; on D(2) dopamine receptor, 245 nM.

On to `OCCN1CCN(CCCN2c3ccccc3Sc3ccc(C(F)(F)F)cc32)CC1` [2-[4-[3-[2-(trifluoromethyl)phenothiazin-10-yl]propyl]piperazin-1-yl]ethanol;hydrochloride], for which, at D(1A) dopamine receptor, affinity was put at a Ki of 4.5 nM.

As for `CN1CCN(C2=Nc3ccccc3Oc3ccc(Cl)cc32)CC1` [13-chloro-10-(4-methylpiperazin-1-yl)-2-oxa-9-azatricyclo[9.4.0.0^{3,8}]pentadeca-1(11),3,5,7,9,12,14-heptaene], the Ki on D(1A) dopamine receptor worked out at 16 nM; on D(2) dopamine receptor, 7.6 nM.

As for `CN1CCN(C2=Nc3cc(Cl)ccc3Cc3sccc32)CC1` [CAS_42239-60-1], the inhibition constant Ki at D(1A) dopamine receptor came out at 17 nM; on D(2) dopamine receptor it was 27 nM.

In the case of `CCc1c(C)[nH]c2c1C(=O)C(CN1CCOCC1)CC2` (centres undefined) [Moban], the Ki at D(1A) dopamine receptor was more than 10000 nM; on D(2) dopamine receptor it was 56 nM.
